Results reported in patent US20230227449A1, “AMIDOPYRIMIDONE DERIVATIVES” (Hoffmann-La Roche Inc., priority 2020, published 2023).

Each compound was assayed against Recombinant human Mat2a (Homo sapiens, UniProt P31153) (assay: Determination of Mat2A activity (384 well absorbance-based assay, Biomol Green)). Conditions: 12.5 nM Mat2A, 100 μM ATP and Methionine, 2% DMSO, 120 minutes at RT, absorbance at 635 nm.
Type: biochemical
Procedure, shortened: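 Recombinant human Mat2A (12.5 nM) was preincubated with compound for 15 min at RT in HEPES pH 7.5 buffer with 2% DMSO. The reaction was started with 100 μM each of ATP and methionine and ran 120 min at RT. Phosphate was detected with Biomol Green by absorbance at 635 nm.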

Sequence of Recombinant human Mat2a (P31153 whole entry): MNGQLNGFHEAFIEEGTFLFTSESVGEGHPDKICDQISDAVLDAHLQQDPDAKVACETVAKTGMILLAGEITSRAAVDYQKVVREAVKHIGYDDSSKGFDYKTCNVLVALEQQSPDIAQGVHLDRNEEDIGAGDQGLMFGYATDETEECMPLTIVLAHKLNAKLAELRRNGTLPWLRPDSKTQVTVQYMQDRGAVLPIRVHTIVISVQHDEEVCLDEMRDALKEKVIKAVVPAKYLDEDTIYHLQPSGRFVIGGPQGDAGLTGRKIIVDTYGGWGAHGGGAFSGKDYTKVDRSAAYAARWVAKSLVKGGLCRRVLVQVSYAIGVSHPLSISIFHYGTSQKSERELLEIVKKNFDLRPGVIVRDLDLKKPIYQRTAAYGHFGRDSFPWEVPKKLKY

| SMILES | IC50 [nM] |
| --- | --- |
| Cc1ccccc1-n1c(=O)nc(O)c2ccc(C3CC3)nc21 [Example 99, 7-cyclopropyl-1-(2-methylphenyl)pyrido[2,3-d]pyrimidine-2,4-dione] | 65 |
| Nc1nc(=O)n(-c2cccc(OC(F)F)n2)c2nc(C3CC3)ccc12 [Example 108, 4-amino-7-cyclopropyl-1-(6-(difluoromethoxy)pyridin-2-yl)pyrido[2,3-d]pyrimidin-2 (1H)-one] | < 13 |
| Cc1c(CF)cccc1-n1c(=O)nc(N)c2ccc(C3CC3)nc21 [Example 131, 4-amino-7-cyclopropyl-1-(3-(fluoromethyl)-2-methylphenyl)pyrido[2,3-d]pyrimidin-2 (1H)-one] | < 13 |
| Nc1nc(=O)n(-c2ccccc2F)c2nc(C3CC3)ccc12 [Example 79, 4-amino-7-cyclopropyl-1-(2-fluorophenyl)pyrido[2,3-d]pyrimidin-2(1H)-one] | < 13 |
| Cc1ccccc1-n1c(=O)[nH]c(=O)c2ccc(C3CC3)cc21 [Example 100, 7-cyclopropyl-1-(2-methylphenyl)quinazoline-2,4-dione] | 350 |
| CCc1ccc2c(N)nc(=O)n(-c3cccnc3C)c2c1 [Example 48, 4-amino-7-ethyl-1-(2-methylpyridin-3-yl)quinazolin-2(1H)-one] | < 13 |
| Cc1ncccc1-n1c(=O)nc(O)c2ccc(C3CC3)cc21 [Example 98, 7-cyclopropyl-1-(2-methylpyridin-3-yl)quinazoline-2,4-dione] | 200 |
| Nc1nc(=O)c(-c2ccccc2Cl)c2cc(C3CC3)ccn12 [Example 111, 4-(2-chlorophenyl)-6-cyclopropyl-1-imino-pyrido[1,2-c]pyrimidin-3-one] | < 13 |
| COc1c(C#N)cccc1-n1c(=O)nc(N)c2ccc(C(C)C)nc21 [Example 38, 3-(4-amino-7-isopropyl-2-oxopyrido[2,3-d]pyrimidin-1(2H)-yl)-2-methoxybenzonitrile] | < 13 |
| CC(c1ccccn1)n1c(=O)nc(N)c2ccc(C3CC3)nc21 (stereo not shown) [Example 82, 4-amino-7-cyclopropyl-1-(1-pyridin-2-ylethyl)pyrido[2,3-d]pyrimidin-2-one] | 36 |
| Nc1nc(=O)n(-c2cccc3[nH]ncc23)c2nc(C3CC3)ccc12 [Example 139, 4-amino-7-cyclopropyl-1-(1H-indazol-4-yl)pyrido[2,3-d]pyrimidin-2 (1H)-one] | < 13 |
| COc1ncccc1-n1c(=O)nc(N)c2ccc(C3CC3)nc21 [Example 9, 4-amino-7-cyclopropyl-1-(2-methoxypyridin-3-yl)pyrido[2,3-d]pyrimidin-2(1H)-one] | < 13 |
| Nc1nc(=O)n(-c2cccc(Cl)c2Cl)c2nc(C3CC3)ccc12 [Example 128, 4-amino-7-cyclopropyl-1-(2,3-dichlorophenyl)pyrido[2,3-d]pyrimidin-2 (1H)-one] | < 13 |
| Cc1c(C#N)cccc1-n1c(=O)nc(N)c2ccc(C3CC3)nc21 (single isomer, unassigned) [Example 146, (−)-3-(4-amino-7-cyclopropyl-2-oxopyrido[2,3-d]pyrimidin-1 (2H)-yl)-2-methylbenzonitrile] | 58 |
| Cc1ncccc1-n1c(=O)nc(N)c2ccc(C(C)C)nc21 [Example 16, 4-amino-1-(2-methylpyridin-3-yl)-7-propan-2-ylpyrido[2,3-d]pyrimidin-2-one] | < 13 |
| N#Cc1cccc(-n2c(=O)nc(N)c3ccc(C4CC4)nc32)c1F [Example 126, 3-(4-amino-7-cyclopropyl-2-oxopyrido[2,3-d]pyrimidin-1 (2H)-yl)-2-fluorobenzonitrile] | < 13 |
| COc1c(C#N)cccc1-n1c(=O)nc(N)c2cc(Cl)c(C(C)C)nc21 [Example 105, 3-(4-amino-6-chloro-7-isopropyl-2-oxopyrido[2,3-d]pyrimidin-1 (2H)-yl)-2-methoxybenzonitrile] | 42 |
| Cc1cccc(-n2c(=O)nc(N)c3ccc(OC(F)F)cc32)c1F [Example 133, 4-amino-7-(difluoromethoxy)-1-(2-fluoro-3-methylphenyl)quinazolin-2 (1H)-one] | 26 |
| Cc1cccc(-n2c(=O)nc(N)c3ccc(C4CC4)nc32)c1Cl [Example 130, 4-amino-1-(2-chloro-3-methylphenyl)-7-cyclopropylpyrido[2,3-d]pyrimidin-2-one] | < 13 |
| Cc1ncncc1-n1c(=O)nc(N)c2ccc(C3CCCC3)nc21 [Example 55, 4-amino-7-cyclopentyl-1-(4-methylpyrimidin-5-yl)pyrido[2,3-d]pyrimidin-2-one] | 17 |
| COc1c(C#N)cccc1-n1c(=O)nc(N)c2ccc(C3CC3)nc21 [Example 19, 3-(4-amino-7-cyclopropyl-2-oxopyrido[2,3-d]pyrimidin-1(2H)-yl)-2-methoxybenzonitrile] | < 13 |

The remaining lines, values ahead:

| IC50 [nM] | SMILES |
| --- | --- |
| 31 | Nc1nc(=O)n([C@@H]2CCCOC2)c2cc(C(F)(F)F)ccc12 [Example 46, (R)-4-amino-1-(tetrahydro-2H-pyran-3-yl)-7-(trifluoromethyl)quinazolin-2(1H)-one] |
| < 13 | Nc1nc(=O)n(-c2cccc(F)c2F)c2nc(C3CC3)ccc12 [Example 73, 4-amino-7-cyclopropyl-1-(2,3-difluorophenyl)pyrido[2,3-d]pyrimidin-2(1H)-one] |
| < 13 | Nc1nc(=O)n([C@@H]2CCCCOC2)c2nc(C3CC3)ccc12 [Example 124, (R)-4-amino-7-cyclopropyl-1-(oxepan-3-yl)pyrido[2,3-d]pyrimidin-2 (1H)-one] |
| < 13 | Nc1nc(=O)n(-c2ccccc2C(F)(F)F)c2nc(C3CC3)ccc12 [Example 132, 4-amino-7-cyclopropyl-1-(2-(trifluoromethyl)phenyl)pyrido[2,3-d]pyrimidin-2 (1H)-one] |
| 37 | COc1ccccc1-c1c(=O)nc(N)n2ccc(C(F)(F)F)cc12 [Example 92, 1-amino-4-(2-methoxyphenyl)-6-(trifluoromethyl)-3H-pyrido[1,2-c]pyrimidin-3-one] |
| < 13 | Cn1nccc1-n1c(=O)nc(N)c2ccc(C3CC3)nc21 [Example 44, 4-amino-7-cyclopropyl-1-(2-methylpyrazol-3-yl)pyrido[2,3-d]pyrimidin-2-one] |
| < 13 | Nc1nc(=O)n(C2CCCOC2)c2nc(C3CC3)ccc12 (stereo not shown) [Example 12, 4-amino-7-cyclopropyl-1-(oxan-3-yl)pyrido[2,3-d]pyrimidin-2-one] |
| < 13 | Nc1nc(=O)n(-c2c(F)cccc2F)c2nc(C3CC3)ccc12 [Example 78, 4-amino-7-cyclopropyl-1-(2,6-difluorophenyl)pyrido[2,3-d]pyrimidin-2(1H)-one] |
| 16 | Nc1nc(=O)n(-c2cccnc2Cl)c2cc(OC(F)(F)F)ccc12 [Example 109, 4-amino-1-(2-chloro-3-pyridyl)-7-(trifluoromethoxy)quinazolin-2-one] |
| 28 | Nc1nc(=O)n(C2CCOC2)c2nc(C3CC3)ccc12 (stereo not shown) [Example 6, 4-amino-7-cyclopropyl-1-(tetrahydrofuran-3-yl)pyrido[2,3-d]pyrimidin-2(1H)-one] |
| 24 | Nc1nc(=O)c(-c2ccccc2Cl)c2cc(C(F)(F)F)ccn12 [Example 149, 1-amino-4-(2-chlorophenyl)-6-(trifluoromethyl)pyrido[1,2-c]pyrimidin-3-one] |
| 25 | Nc1nc(=O)n(C2COCCOC2)c2nc(C3CC3)ccc12 [Example 107, 4-amino-7-cyclopropyl-1-(1,4-dioxepan-6-yl)pyrido[2,3-d]pyrimidin-2-one] |
| 140 | COc1ncccc1-n1c(=O)nc(N)c2ccc(C3CCCCO3)nc21 (stereo not shown) [Example 54, 4-amino-1-(2-methoxy-3-pyridyl)-7-tetrahydropyran-2-yl-pyrido[2,3-d]pyrimidin-2-one] |
| 14 | Nc1nc(=O)n([C@@H]2CCCOC2)c2nc([C@@H]3C[C@H]3F)ccc12 (mixture of isomers) [Example 49, 4-amino-7-[(1SR,2RS)-2-fluorocyclopropyl]-1-[(3R)-tetrahydropyran-3-yl]pyrido[2,3-d]pyrimidin-2-one] |
| < 13 | Cc1ccccc1-n1c(=O)nc(N)c2ccc(C3CC3)cc21 [Example 8, 4-amino-7-cyclopropyl-1-(o-tolyl)quinazolin-2 (1H)-one] |
| 18 | Nc1nc(=O)n(-c2cccc3c2CCO3)c2cc(OC(F)(F)F)ccc12 [Example 160, 4-amino-1-(2,3-dihydro-1-benzofuran-4-yl)-7-(trifluoromethoxy)quinazolin-2-one] |
| 21 | Nc1nc(=O)n(-c2cc(F)ccc2Cl)c2nc(C3CC3)ccc12 [Example 156, 4-amino-1-(2-chloro-5-fluorophenyl)-7-cyclopropylpyrido[2,3-d]pyrimidin-2-one] |
| 210 | Nc1nc(=O)n(C2CCOCC2)c2nc(C3CC3)ccc12 [Example 84, 4-amino-7-cyclopropyl-1-(tetrahydro-2H-pyran-4-yl)pyrido[2,3-d]pyrimidin-2(1H)-one] |
| < 13 | C[C@@H]1OCCC[C@H]1n1c(=O)nc(N)c2ccc(C3CC3)nc21 [Example 119, 4-amino-7-cyclopropyl-1-((2S,3R)-2-methyltetrahydro-2H-pyran-3-yl)pyrido[2,3-d]pyrimidin-2 (1H)-one] |
| < 13 | Nc1nc(=O)n(-c2cccc3c2CCO3)c2nc(C(F)(F)F)ccc12 [Example 162, 4-amino-1-(2,3-dihydrobenzofuran-4-yl)-7-(trifluoromethyl)pyrido[2,3-d]pyrimidin-2 (1H)-one] |
| 39 | Nc1nc(=O)n(C2CCn3cncc32)c2nc(C3CC3)ccc12 (stereo not shown) [Example 112, 4-amino-7-cyclopropyl-1-(6,7-dihydro-5H-pyrrolo[1,2-c]imidazol-7-yl)pyrido[2,3-d]pyrimidin-2-one] |
| 130 | Nc1nc(=O)n(C2CCCOC23CC3)c2cc(OC(F)F)ccc12 (stereo not shown) [Example 150, 4-amino-7-(difluoromethoxy)-1-(4-oxaspiro[2.5]octan-8-yl)quinazolin-2 (1H)-one] |
